The target of the experiment is T1, recombinant autotaxin (Homo sapiens, UniProt Q13822).
T1 construct: made in house; host or cells: Hi5 insect cells (baculovirus)
In words: Autotaxin test (enzyme test), Amplex Red fluorescence. The experiment is classed as biochemical. As to conditions: substrate LPC 75 μM, Amplex Red detection, read-out: IC50 (autotaxin inhibition, enzyme test). On the procedure:
Autotaxin Inhibition (Enzyme Test)
Autotaxin Test (Enzyme Test)
The autotaxin activity is measured indirectly using Amplex Red reagent. Amplex Red is measured here as fluorogenic indicator for the H2O2 formed. In detail, autotaxin converts the substrate lysophosphatidylcholine (LPC) into phosphocholine and lysophosphatidylic acid (LPA). After this reaction, the phosphocholine is reacted with alkaline phosphatase to give inorganic phosphate and choline. In the next step, choline is oxidised by choline oxidase to give betaine, with formation of H2O2. H2O2 reacts with Amplex Red reagent in the presence of peroxidase (horseradish peroxidase) in a 1:1 stoichiometry and forms the highly fluorescent resorufin. The fluorescence is measured in a reaction-dependent kinetic mode in order that fluorescent signals from possible other fluorescent substances which are not involved in the reaction can be corrected out.
1.5 μl of a standard solution or of the test substances (substances with the name A(n)) in individual concentrations dissolved in 20 mM Hepes pH 7.2 with a maximum of 7.7% of DMSO are pre-incubated together with 10 μl (16 ng) of highly purified recombinant autotaxin in a black microtitre plate provided with 384 wells at 22° C. for 30 min. The reaction is then initiated by addition of 5 μl of L-α-lysophosphatidylcholine (LPC), where the final concentration of LPC is 75 μM. The mixture is incubated at 37° C. for 90 min. After the incubation, Amplex Red reagent, peroxidase (horseradish peroxidase) and choline oxidase is added, and the fluorescence is immediately measured at 612 nm with excitation of 485 nm in a “Tecan Ultra multimode” reader. The activity of autotaxin is calculated indirectly via detection of the H2O2 formed. • Material: • Microtitre plate: PS microplate, 384 wells, small volume, black Corning, Cat #3677 • Protein: recombinant autotaxin (Baculovirale Hi5 Expression) • Substrate: L-α-lysophosphatidylcholine (chicken egg)); Avanti Polar Lipids #830071 P • Standard: C14 LPA, Avanti Polar Lipids, Cat #857120P • Detection reagent: Amplex Red reagent; Invitrogen #A12222; dissolved in 1.923 ml of DMSO peroxidase type VI-A (horseradish) from Sigma #P6782; dissolved in 7.45 ml of test buffer, choline oxidase; Sigma #C5896; dissolved in 2.47 ml of test buffer • Detection reagent mix: 1:100 dilution of Amplex Red reagent in test buffer • Test buffer: 200 mM Tris HCl, Merck, Cat #1.08219, pH 7.9, 0.1% of BSA, lipid-free, Roche Cat #775835

In the case of “5-[3-(4-Butylphenyl)ureido]-2-(5-cyclopropyl-carbamoylfuran-2-ylmethyl)-1H-imidazole-4-carboxamide [Compound A89]”, the half-maximal inhibitory concentration (IC50) is above 10 µM.

For the compound `CC(C)c1ccc(NC(=O)Nc2[nH]c(Cc3ccc(OCC(=O)O)cc3)nc2C(N)=O)cc1` [Compound A1, (4-{4-carbamoyl-5-[3-(4-isopropylphenyl)ureido]-1H-imidazol-2-ylmethyl}phenoxy)acetic acid], the half-inhibitory concentration (IC50) lay in the range of 1 to 10 µM.

For the compound `CC(C)c1ccc(NC(=O)Nc2[nH]c(Cc3ccc(C(=O)O)cc3)nc2C(N)=O)cc1` [Compound A2, 4-{4-Carbamoyl-5-[3-(4-isopropylphenyl)ureido]-1H-imidazol-2-ylmethyl}benzoic acid], the half-maximal inhibitory concentration (IC50) fell in the range of 1 to 10 µM. For `CCCCc1ccc(NC(=O)Nc2[nH]c(Cc3ccc(C(=O)O)cc3)nc2C(N)=O)cc1` [Compound A3, 4-{5-[3-(4-Butylphenyl)ureido]-4-carbamoyl-1H-imidazol-2-ylmethyl}benzoic acid], the IC50 is above 10 µM.

For `CCCCCCNC(=O)Nc1[nH]c(Cc2ccc(C(=O)O)cc2)nc1C(N)=O` [Compound A4, 4-[4-Carbamoyl-5-(3-hexylureido)-1H-imidazol-2-ylmethyl]benzoic acid], the IC50 is above 10 µM. The result for `Cc1ccc(NC(=O)Nc2[nH]c(Cc3ccc(C(=O)O)cc3)nc2C(N)=O)cc1` [Compound A5, 4-[4-Carbamoyl-5-(3-p-tolylureido)-1H-imidazol 2-ylmethyl]benzoic acid] reads above 10 µM; that for `NC(=O)c1nc(Cc2ccc(C(=O)O)cc2)[nH]c1NC(=O)Nc1ccc(Cl)cc1` [Compound A6, 4-{4-Carbamoyl-5-[3-(4-chlorophenyl)ureido]-1H imidazol-2-ylmethyl}benzoic acid], 1 to 10 µM; that for `CCc1ccc(NC(=O)Nc2[nH]c(Cc3ccc(C(=O)O)cc3)nc2C(N)=O)cc1` [Compound A7, 4-{4-Carbamoyl-5-[3-(4-ethylphenyl)ureido]-1H imidazol-2-ylmethyl}benzoic acid], 1 to 10 µM.

For the compound `Cc1c(Cl)cccc1NC(=O)Nc1[nH]c(Cc2ccc(C(=O)O)cc2)nc1C(N)=O` [Compound A8, 4-{4-Carbamoyl-5-[3-(3-chloro-2-methylphenyl)-ureido]-1H-imidazol-2-ylmethyl}benzoic acid], the IC50 was 1 to 10 µM.

Consider `CCCCOc1ccc(NC(=O)Nc2[nH]c(Cc3ccc(C(=O)O)cc3)nc2C(N)=O)cc1` [Compound A9, 4-{5-[3-(4-Butoxyphenyl)ureido]-4-carbamoyl-1H-imidazol-2-ylmethyl}benzoic acid], for which the concentration for half-maximal inhibition (IC50) lay in the range of 1 to 10 µM. The result for `NC(=O)c1nc(Cc2ccc(C(=O)O)o2)[nH]c1NC(=O)Nc1ccc(C(F)(F)F)cc1` [Compound A10, 5-{4-Carbamoyl-5-[3-(4-trifluoromethylphenyl)-ureido]-1H-imidazol-2-ylmethyl}furan-2-carboxylic acid] reads 1 to 10 µM; that for `CCc1ccc(NC(=O)Nc2[nH]c(Cc3ccc(C(=O)O)o3)nc2C(N)=O)cc1` [Compound A11, 5-{4-Carbamoyl-5-[3-(4-ethylphenyl)ureido]-1H-imidazol-2-ylmethyl}furan-2-carboxylic acid], 1 to 10 µM; that for `CC(C)c1ccc(NC(=O)Nc2[nH]c(Cc3ccc(C(=O)O)o3)nc2C(N)=O)cc1` [Compound A12, 5-{4-Carbamoyl-5-[3-(4-isopropylphenyl)ureido]-1H-imidazol-2-ylmethyl}furan-2-carboxylic acid], 1 to 10 µM. The result for `Cc1c(Cl)cccc1NC(=O)Nc1[nH]c(Cc2ccc(C(=O)O)o2)nc1C(N)=O` [Compound A13, 5-{4-Carbamoyl-5-[3-(3-chloro-2-methylphenyl)-ureido]-1H-imidazol-2-ylmethyl}furan-2-carboxylic acid] reads above 10 µM; that for `Cc1ccc(NC(=O)Nc2[nH]c(Cc3ccc(C(=O)O)o3)nc2C(N)=O)c(C)c1` [Compound A14, 5-{4-Carbamoyl-5-[3-(2,4-dimethylphenyl)-ureido]-1H-imidazol-2-ylmethyl}furan-2-carboxylic acid], above 10 µM. Next, `NC(=O)c1nc(Cc2ccc(C(=O)O)cc2)[nH]c1NC(=O)Nc1ccc(C(F)(F)F)cc1` [Compound A15, 4-{4-Carbamoyl-5-[3-(4-tritluoromethylphenyl)-ureido]-1H-imidazol-2-ylmethyl}benzoic acid]: 1 to 10 µM; `Cc1cccc(C)c1NC(=O)Nc1[nH]c(Cc2ccc(C(=O)O)cc2)nc1C(N)=O` [Compound A16, 4-{4-Carbamoyl-5-[3-(2,6-dimethylphenyl)-ureido]-1H-imidazol-2-ylmethyl}benzoic acid]: above 10 µM. Consider `NC(=O)c1nc(Cc2ccc(C(=O)O)cc2)[nH]c1NC(=O)Nc1cc(C(F)(F)F)ccc1F` [Compound A17, 4-{4-Carbamoyl-5-[3-(2-tluoro-5-trifluoromethyl-phenyl)ureido]-1H-imidazol-2-ylmethyl}benzoic acid], for which the IC50 was above 10 µM. Next, `NC(=O)c1nc(-c2ccc(C(=O)O)cc2)[nH]c1NC(=O)Nc1ccc(C(F)(F)F)cc1` [Compound A18, 4-{4-Carbamoyl-5-[3-(4-trifluoromethylphenyl)-ureido]-1H-imidazol-2-yl}benzoic acid]: above 10 µM; `CCc1ccc(NC(=O)Nc2[nH]c(-c3ccc(C(=O)O)cc3)nc2C(N)=O)cc1` [Compound A19, 4-{4-Carbamoyl-5-[3-(4-ethylphenyl)ureido]-1H-imidazol-2-yl}benzoic acid]: above 10 µM; `NC(=O)c1nc(-c2ccc(CC(=O)O)cc2)[nH]c1NC(=O)Nc1ccc(C(F)(F)F)cc1` [Compound A20, (4-{4-Carbamoyl-5-[3-(4-trifluoromethylphenyl)-ureido]-1H-imidazol-2-yl}phenyl)acetic acid]: above 10 µM.

`NC(=O)c1nc(-c2ccc(CC(=O)O)cc2)[nH]c1NC(=O)Nc1cccc(Cl)c1` [Compound A21, (4-{4-Carbamoyl-5-[3-(3-chlorophenyl)ureido]-1H-imidazol-2-yl}phenyl)acetic acid]: the IC50 was above 10 µM. The result for `NC(=O)c1nc(-c2ccc(CC(=O)O)cc2)[nH]c1NC(=O)Nc1ccc(Cl)cc1` [Compound A22, (4-{4-Carbamoyl-5-[3-(4-chlorophenyl)ureido]-1H-imidazol-2-yl}phenyl)acetic acid] reads above 10 µM.

On to `CC(C)c1ccc(NC(=O)Nc2[nH]c(-c3ccc(CC(=O)O)cc3)nc2C(N)=O)cc1` [Compound A23, (4-{4-Carbamoyl-5-[3-(4-isopropylphenyl)ureido]-1H-imidazol-2-yl}phenyl)acetic acid], for which the 50% inhibitory concentration (IC50) is above 10 µM. `Cc1ccc(NC(=O)Nc2[nH]c(-c3ccc(CC(=O)O)cc3)nc2C(N)=O)c(C)c1` [Compound A24, (4-{4-Carbamoyl-5-[3-(2,4-dimethylphenyl)-ureido]-1H-imidazol-2-yl}phenyl)acetic acid]: the IC50 was above 10 µM. Next, `Cc1cc(C)cc(NC(=O)Nc2[nH]c(-c3ccc(CC(=O)O)cc3)nc2C(N)=O)c1` [Compound A25, (4-{4-Carbamoyl-5-[3-(3,5-dimethylphenyl)-ureido]-1H-imidazol-2-yl}phenyl)acetic acid]: above 10 µM; `Cc1cccc(C)c1NC(=O)Nc1[nH]c(Cc2ccc(C(=O)O)o2)nc1C(N)=O` [Compound A26, 5-{4-Carbamoyl-5-[3-(2,6-dimethylphenyl)-ureido]-1H-imidazol-2-ylmethyl}furan-2-carboxylic acid]: above 10 µM.

Usually IC50 stands for the concentration that gives 50% inhibition.
